Measurements as given in PMC11431439, “Study on the Inhibitory Effect of Bioactive Peptides Derived from Yak Milk Cheese on Cholesterol Esterase” (Foods, 2024).
pIC50: −log10 of the molar value. “Also recorded” adds a separate entry of the source. Where no end group is shown, it is not given here.

Key:
[1] = target: T1, Porcine cholesterol esterase (Sus scrofa, UniProt A0A286ZKB1); test: CE inhibitory activity assay (spectrophotometry); format: biochemical; settings: for comparative inhibitory activity on CE (in words): authors' ranking, for KQ7 partly integrating molecular dynamics; for concentration dependence of CE inhibition rate: 0.2–1.0 mg/mL; for CE inhibition rate vs control group: all concentrations, p < 0.05
T1 sequence (A0A286ZKB1 1-682): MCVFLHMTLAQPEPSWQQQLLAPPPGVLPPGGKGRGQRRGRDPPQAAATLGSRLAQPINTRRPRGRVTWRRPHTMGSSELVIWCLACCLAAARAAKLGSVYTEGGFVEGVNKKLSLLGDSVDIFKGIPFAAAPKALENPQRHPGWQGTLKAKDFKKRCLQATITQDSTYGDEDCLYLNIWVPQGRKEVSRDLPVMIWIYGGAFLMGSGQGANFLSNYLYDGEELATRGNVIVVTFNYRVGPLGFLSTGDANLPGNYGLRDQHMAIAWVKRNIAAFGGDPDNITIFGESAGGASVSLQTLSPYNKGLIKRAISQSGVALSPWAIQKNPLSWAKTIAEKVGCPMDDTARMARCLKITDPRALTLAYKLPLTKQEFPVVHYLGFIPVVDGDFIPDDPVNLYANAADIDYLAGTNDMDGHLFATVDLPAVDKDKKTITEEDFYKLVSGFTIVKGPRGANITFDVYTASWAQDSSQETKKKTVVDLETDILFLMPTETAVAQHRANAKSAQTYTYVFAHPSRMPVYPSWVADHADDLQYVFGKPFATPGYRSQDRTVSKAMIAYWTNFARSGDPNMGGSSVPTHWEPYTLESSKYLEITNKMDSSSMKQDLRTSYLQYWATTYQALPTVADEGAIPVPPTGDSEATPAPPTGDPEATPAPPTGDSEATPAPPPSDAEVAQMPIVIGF
Method: (§1) Porcine cholesterol esterase and the ELISA kit were provided by Jiangsu JINGMEI Biotechnology Co., Ltd. (Yancheng, China).
(§2) In the formula, ODs: is the absorbance value of the sample group; ODsb: is the absorbance value of the sample blank group; ODc: is the absorbance value of the control group; and ODb: is the absorbance value of the blank group.
(§3) Each experimental sample was tested in triplicate, and the data were processed using IBM SPSS Statistics 26 software. Figures were generated using Origin 2018 and GraphPad Prism 8.0.2 software.

[2] = peptide isolated from soybean glycinin; ref [26]; cited from earlier work
Text: These carbon–hydrogen bonds may have stabilized the QP13–CE complex to some extent, complementing the hydrogen bonds. It formed π–Alkyl bonds with Ile426, Phe119, Ala117, Leu69, and Leu124 through hydrophobic interactions. QP13 also interacted with Asp434, Lys445, Asn118, Met424, Ile426, Tyr75, Thr68, Tyr427, Tyr123, Leu69, Gln440, Asn112, Phe119, and Arg63 through van der Waals f ...

[3] = target: T1, Porcine cholesterol esterase; test: CE inhibitory activity after simulated gastrointestinal digestion (pepsin, trypsin); format: biochemical; settings: for CE inhibition after digestion (in words): after simulated gastrointestinal digestion; for change of CE inhibition on digestion (in words): simulated gastrointestinal digestion, KQ7, QP13, VN10 at 60 min, RK7 within 120 min
Text: as §1, §2
We dissolved the synthesized peptide aqueous solution in pepsin (enzyme: substrate 1:50 w/w) and adjusted the pH to 2 using 1 mol/L HCl. Then, we hydrolyzed this at 37 °C for 90 min, then adjusted the pH to 7.5 with 1 mol/L NaOH solution and added trypsin (enzyme: substrate 1:50 w/w). Next, we hydrolyzed this at 37 °C for 180 min in a constant temperature water bath. Subsequently, we inactivated this by boiling it in a 95 °C water bath for 10 min. Finally, we took samples every 30 min and stored each sample at −20 °C for later analysis.
The determination of CE activity refers to Section 2.3.5.
as §3

| Compound | comparative inhibitory activity on CE (in words) [1] | pIC50 ([1]; from inhibition curve, spectrophotometry, triplicate) | cholesterol effect [2] | concentration dependence of CE inhibition rate [1] | CE inhibition rate vs control group [1] | CE inhibition after digestion (in words) [3] | change of CE inhibition on digestion (in words) [3] |
| --- | --- | --- | --- | --- | --- | --- | --- |
| CC(C)c1c(C(=O)Nc2ccccc2)c(-c2ccccc2)c(-c2ccc(F)cc2)n1CC[C@@H](O)C[C@@H](O)CC(=O)O [Atorvastatin, reference compound] | strongest inhibitory effect on CE | 3.07 |  |  |  |  |  |
| Leu–Pro–Tyr–Pro |  |  | demonstrated low cholesterol effects |  |  |  |  |
| VYPFPGPIPN [VN10] |  |  |  | increased with the increase of peptide mass concentration | significantly higher than those of the control group at all concentrations (p < 0.05) | effective in inhibiting CE after simulated gastrointestinal digestion | significant increases in inhibition activity (p < 0.05) |
| RPKHPIK [RK7, Arg-Pro-Lys-His-Pro-Ile-Lys] |  |  |  | increased with the increase of peptide mass concentration | significantly higher than those of the control group at all concentrations (p < 0.05) | effective in inhibiting CE after simulated gastrointestinal digestion | significant increase in the inhibitory activity; also recorded: significant changes observed (p < 0.05); also recorded: significantly enhanced after simulated gastrointestinal digestion |
| KVLPVPQ [KQ7, Lys-Val-Leu-Pro-Val-Pro-Gln] | highest inhibitory activity on CE; also recorded: higher inhibitory activity against CE compared to RK7; also recorded: highest inhibitory activity against CE |  |  | increased with the increase of peptide mass concentration | significantly higher than those of the control group at all concentrations (p < 0.05) | effective in inhibiting CE after simulated gastrointestinal digestion | significant increase in the inhibitory activity; also recorded: significant increase in CE inhibition activity at 60 min during digestion (p < 0.05); also recorded: significantly enhanced after simulated gastrointestinal digestion |
| QEPVLGPVRGPFP [QP13] |  |  |  | increased with the increase of peptide mass concentration | significantly higher than those of the control group at all concentrations (p < 0.05) | effective in inhibiting CE after simulated gastrointestinal digestion | significant increases in inhibition activity (p < 0.05) |
